{"source": "patent US6664069B1", "about": "“Use of GABAB receptor agonists in the screening of compounds which are reflux inhibitors” (AstraZeneca AB, priority 1996, dated 2003)", "tested_on": "transient lower esophageal sphincter relaxations (TLESR)", "assay": "Effect of GABAB receptor agonists on TLESR in dog after nutrient infusion and air insufflation", "assay_type": "in vivo", "conditions": "for TLESR % of control at 90 min / TLESR % of control at 45 min: mean ± SEM; for TLESR % of control at 45 min: first 45 min", "description": "Adult Labrador retriever dogs of both sexes (5 males, 3 females) weighing 20-30 kg were used. A cervical esophagostomy was formed to allow intubation. After a recovery period, the dogs were used in control experiments until a stable and reliable control response had been achieved. The dogs were used in other experiments before they were given the GABAB receptor agonists, but they were always allowed a wash-out period of at least two days during which time no drugs were administered. Every fourth experiment on each dog was a control experiment to ensure stability and reproducibility of the results.\nThe experiments were started at about 8 a.m. at which time the animals had been fasting for approximately 17 hrs. The dog was placed in a Pavlov stand to which it had been accustomed previously. A thin silicone catheter with a distal opening was introduced retrogradely through the esophagostomy into the pharynx to record swallowing. The catheter was perfused with air at approximately 2 ml/min. A multilumen assembly was positioned so that pressures could be recorded in the proximal stomach, LES and at four sites in the distal esophagus. The assembly was fitted with a 6 cm long sleeve to measure LES pressure reliably. Gastric and LES channels were perfused with distilled degassed water at 0.45 ml/min and esophageal channels at 0.1 ml/min. A low-compliance pneumohydraulic pump was used to achieve optimal perfusion conditions. Intraluminal pressures were measured with external pressure transducers. The signals were amplified and acquired using LabWindows/CVI software (version 3.1). Pressure calibrations were done at 0 and 100 mm Hg with the multilumen assemblies placed at a level slightly below the pressure transducers. The dog was positioned so that the average intragastric (i.g.) pressure approximated 0 mm Hg. An antimony pH-electrode was positioned 3 cm orad to the upper margin of the LES, and the signals were acquired as described above. Analysis of acquired signals was made using LabWindows software.\nBaseline measurement was done for at least 10 min, and then vehicle (0.9% NaCl; 0.5 ml/kg) or a GABAB receptor agonist was given i.v. over 2 min. Ten min after the completion of the administration, nutrient was infused i.g. via the multilumen assembly at a rate of 100 ml/min (30 ml/kg). GABA was given as a continuous i.v. infusion which commenced 10 min before nutrient administration; and R, S,-baclofen was in some cases given intragastrically 30 min before nutrient. The nutrient contained 10% peptone (w/v), 5% Intralipid (v/v) and 5% D-glucose (w/v) and was acidified to pH 3.0 with HCl. Immediately after the infusion, air was insufflated at 40 ml/min to make up a total time of 90 min starting from the commencement of nutrient infusion. The dog was then extubated and a baseline measurement was done to ensure that no drift had occurred.\nA TLESR was identified by the following criteria; The difference between LES and i.g. pressures was less than 2 mm Hg, the duration was more than 0.5 s and the relaxation was not triggered by primary peristalsis (i.e. by a pharyngeal signal). The rate of pressure drop was more than 10 mm Hg/s. Most, but not all, TLESR could also be detected aurally by a characteristic noise at the esophagostomy (i.e. belching). The total number of TLESR was calculated for the first 45 min period and entire experiment (90 min). The effect of GABAB receptor agonists was expressed relative to individual control data (n≧5). Each agonist was tested in at least two different dogs.", "key": {"[1]": {"conditions": "1.5 mg/kg intragastric admin. 30 min before nutrient"}, "[2]": {"conditions": "1.8 mg/kg as intravenous infusion over 100 min"}, "[3]": {"conditions": "5.4 mg/kg as intravenous infusion over 100 min"}}}
{"smiles": "NCC(CC(=O)O)c1ccc(Cl)cc1", "note": "(racemic) [R, S-baclofen, 4-amino-3-(4-chlorophenyl)butanoic acid]", "values": [{"measurement": "TLESR % of control at 90 min", "setting": "0.3 mg/kg intravenously", "result": "66 ± 8 % of control"}, {"measurement": "TLESR % of control at 45 min", "setting": "0.3 mg/kg intravenously", "result": "47 ± 6 % of control"}, {"measurement": "TLESR % of control at 90 min", "setting": "[1]", "result": "54 ± 12 % of control"}, {"measurement": "TLESR % of control at 45 min", "setting": "[1]", "result": "12 ± 6 % of control"}, {"measurement": "TLESR % of control at 90 min", "setting": "1.5 mg/kg intravenously", "result": "43 ± 19 % of control"}, {"measurement": "TLESR % of control at 45 min", "setting": "1.5 mg/kg intravenously", "result": "11 ± 6 % of control"}, {"measurement": "behavioural side effects", "setting": "high R,S-baclofen dose, disappeared approximately one hour after the administration", "result": "some sedation"}]}
{"smiles": "CP(=O)(O)C[C@@H](O)CN", "note": "[(3-amino-2-(S)-hydroxypropyl)methylphosphinic acid]", "values": [{"measurement": "TLESR % of control at 90 min", "setting": "0.03 mg/kg intravenously", "result": "65 ± 10 % of control"}, {"measurement": "TLESR % of control at 45 min", "setting": "0.03 mg/kg intravenously", "result": "53 ± 7 % of control"}, {"measurement": "TLESR % of control at 90 min", "setting": "0.3 mg/kg intravenously", "result": "38 ± 6 % of control"}, {"measurement": "TLESR % of control at 45 min", "setting": "0.3 mg/kg intravenously", "result": "0 ± 0 % of control"}]}
{"smiles": "CP(=O)(O)CCCN", "note": "[(3-aminopropyl)methylphosphinic acid]", "values": [{"measurement": "TLESR % of control at 90 min", "setting": "0.003 mg/kg intravenously", "result": "76 ± 5 % of control"}, {"measurement": "TLESR % of control at 45 min", "setting": "0.003 mg/kg intravenously", "result": "57 ± 12 % of control"}, {"measurement": "TLESR % of control at 90 min", "setting": "0.01 mg/kg intravenously", "result": "39 ± 7 % of control"}, {"measurement": "TLESR % of control at 45 min", "setting": "0.01 mg/kg intravenously", "result": "32 ± 8 % of control"}, {"measurement": "TLESR % of control at 90 min", "setting": "0.03 mg/kg intravenously", "result": "50 ± 17 % of control"}, {"measurement": "TLESR % of control at 45 min", "setting": "0.03 mg/kg intravenously", "result": "25 ± 4 % of control"}, {"measurement": "TLESR % of control at 90 min", "setting": "0.1 mg/kg intravenously", "result": "33 ± 9 % of control"}, {"measurement": "TLESR % of control at 45 min", "setting": "0.1 mg/kg intravenously", "result": "5 ± 5 % of control"}]}
{"smiles": "NCCCC(=O)O", "note": "[GABA, 4-aminobutanoic acid]", "values": [{"measurement": "TLESR % of control at 90 min", "setting": "[2]", "result": "61 ± 3 % of control"}, {"measurement": "TLESR % of control at 45 min", "setting": "[2]", "result": "62 ± 2 % of control"}, {"measurement": "TLESR % of control at 90 min", "setting": "[3]", "result": "54 ± 10 % of control"}, {"measurement": "TLESR % of control at 45 min", "setting": "[3]", "result": "57 ± 6 % of control"}]}
{"smiles": "NC[C@H](CC(=O)O)c1ccc(Cl)cc1", "note": "[R-baclofen]", "values": [{"measurement": "TLESR % of control at 90 min", "setting": "0.3 mg/kg intravenously", "result": "40 ± 11 % of control"}, {"measurement": "TLESR % of control at 45 min", "setting": "0.3 mg/kg intravenously", "result": "36 ± 10 % of control"}]}
{"smiles": "NC[C@@H](CC(=O)O)c1ccc(Cl)cc1", "note": "[S-baclofen]", "values": [{"measurement": "TLESR % of control at 90 min", "setting": "1.5 mg/kg intravenously", "result": "92 ± 10 % of control"}, {"measurement": "TLESR % of control at 45 min", "setting": "1.5 mg/kg intravenously", "result": "76 ± 10 % of control"}]}
